Laboratory results as given in ChEMBL document CHEMBL5356994, “Synthesis, biological and molecular modelling for 1,3,4-thiadiazole sulfonyl thioureas: bacterial and fungal activity” (RSC Med Chem, 2023).
≈ marks a conversion by molar mass, not a printed value.

How the values were obtained:
Clostridioides difficile = experiment: Antibacterial activity against Clostridium difficile assessed as inhibition of bacterial growth incubated for 18 to 20 hrs by microbroth dilution method; assay type: functional; conditions: time 18-20 hrs
[1] = molecular target: DNA topoisomerase 4 subunit B (Staphylococcus aureus, UniProt P0C1S7); experiment: Inhibition of Staphylococcus aureus DNA topoisomerase 4 subunit B ATPase activity using relaxed pNO1 plasmid as substrate incubated for 30 mins by microplate reader analysis
Dihydrofolate reductase = Dihydrofolate reductase (Staphylococcus aureus, UniProt P0A017); experiment: Inhibition of Staphylococcus aureus dihydrofolate reductase using dihydrofolate as substrate in presence of NADPH by microplate reader analysis
Streptococcus pneumoniae = experiment: Antibacterial activity against Streptococcus pneumoniae assessed as inhibition of bacterial growth incubated for 18 to 20 hrs by microbroth dilution method; assay type: functional; conditions: time 18-20 hrs
Fusarium oxysporum = experiment: Antifungal activity against Fusarium oxysporum assessed as inhibition of fungal growth incubated for 72 hrs by agar dilution method; assay type: functional
Aspergillus niger = experiment: Antifungal activity against Aspergillus niger assessed as inhibition of fungal growth incubated for 72 hrs by agar dilution method; assay type: functional
[2] = tested on: Staphylococcus epidermidis; experiment: Antibacterial activity against Staphylococcus epidermidis assessed as inhibition of bacterial growth incubated for 18 to 20 hrs by microbroth dilution method; assay type: functional; conditions: time 18-20 hrs
DNA gyrase subunit B = DNA gyrase subunit B (Staphylococcus aureus, UniProt P0A0K8); experiment: Inhibition of Staphylococcus aureus DNA gyrase subunit B ATPase activity using relaxed pNO1 plasmid as substrate incubated for 30 mins by microplate reader analysis
Saccharomyces cerevisiae = experiment: Antifungal activity against Saccharomyces cerevisiae assessed as inhibition of fungal growth incubated for 72 hrs by agar dilution method; assay type: functional
Staphylococcus aureus [3] = experiment: Antibacterial activity against Staphylococcus aureus assessed as inhibition of bacterial growth incubated for 18 to 20 hrs by microbroth dilution method; assay type: functional; conditions: time 18-20 hrs
Aspergillus flavus [4] = experiment: Antifungal activity against Aspergillus flavus assessed as inhibition of fungal growth incubated for 72 hrs by agar dilution method; assay type: functional
Klebsiella pneumoniae = experiment: Antibacterial activity against Klebsiella pneumoniae assessed as inhibition of bacterial growth incubated for 18 to 20 hrs by microbroth dilution method; assay type: functional; conditions: time 18-20 hrs
Bacillus subtilis = experiment: Antibacterial activity against Bacillus subtilis assessed as inhibition of bacterial growth incubated for 18 to 20 hrs by microbroth dilution method; assay type: functional; conditions: time 18-20 hrs
Pseudomonas aeruginosa = experiment: Antibacterial activity against Pseudomonas aeruginosa assessed as inhibition of bacterial growth incubated for 18 to 20 hrs by microbroth dilution method; assay type: functional; conditions: time 18-20 hrs
Candida albicans [5] = experiment: Antifungal activity against Candida albicans assessed as inhibition of fungal growth incubated for 72 hrs by agar dilution method; assay type: functional
Escherichia coli [6] = experiment: Antibacterial activity against Escherichia coli assessed as inhibition of bacterial growth incubated for 18 to 20 hrs by microbroth dilution method; assay type: functional; conditions: time 18-20 hrs
Salmonella typhimurium = experiment: Antibacterial activity against Salmonella typhimurium assessed as inhibition of bacterial growth incubated for 18 to 20 hrs by microbroth dilution method; assay type: functional, Salmonella enterica subsp. enterica serovar Typhimurium; conditions: Salmonella enterica; time 18-20 hrs
Carbonic anhydrase 2 = Carbonic anhydrase 2 (Homo sapiens, UniProt P00918); experiment: Inhibition of human carbonic anhydrase II esterase activity using p-nitrophenol acetate as substrate and measured for 3 mins by UV/visible spectrophotometric analysis
[7] = tested on: Mycobacterium tuberculosis; experiment: Antitubercular activity against Mycobacterium tuberculosis H37Rv assessed as inhibition of bacterial growth incubated for 24 hrs by two-fold dilution method; assay type: functional
Candida albicans [8] = experiment: Antifungal activity against Candida albicans assessed as inhibition of fungal growth incubated for 16 to 18 hrs by serial dilution method; assay type: functional; conditions: time 16-18 hrs
Escherichia coli [9] = experiment: Antibacterial activity against Escherichia coli assessed as inhibition of bacterial growth incubated for 16 to 18 hrs by serial dilution method; assay type: functional; conditions: time 16-18 hrs
Staphylococcus aureus [10] = experiment: Antibacterial activity against Staphylococcus aureus assessed as inhibition of bacterial growth incubated for 16 to 18 hrs by serial dilution method; assay type: functional; conditions: time 16-18 hrs
Aspergillus flavus [11] = experiment: Antifungal activity against Aspergillus flavus assessed as inhibition of fungal growth incubated for 16 to 18 hrs by serial dilution method; assay type: functional; conditions: time 16-18 hrs
Candida albicans [12] = experiment: Antifungal activity against Candida albicans assessed as inhibition of fungal growth incubated for 20 hrs by macro-broth dilution method; assay type: functional

Sequence of DNA topoisomerase 4 subunit B (P0C1S7 whole entry): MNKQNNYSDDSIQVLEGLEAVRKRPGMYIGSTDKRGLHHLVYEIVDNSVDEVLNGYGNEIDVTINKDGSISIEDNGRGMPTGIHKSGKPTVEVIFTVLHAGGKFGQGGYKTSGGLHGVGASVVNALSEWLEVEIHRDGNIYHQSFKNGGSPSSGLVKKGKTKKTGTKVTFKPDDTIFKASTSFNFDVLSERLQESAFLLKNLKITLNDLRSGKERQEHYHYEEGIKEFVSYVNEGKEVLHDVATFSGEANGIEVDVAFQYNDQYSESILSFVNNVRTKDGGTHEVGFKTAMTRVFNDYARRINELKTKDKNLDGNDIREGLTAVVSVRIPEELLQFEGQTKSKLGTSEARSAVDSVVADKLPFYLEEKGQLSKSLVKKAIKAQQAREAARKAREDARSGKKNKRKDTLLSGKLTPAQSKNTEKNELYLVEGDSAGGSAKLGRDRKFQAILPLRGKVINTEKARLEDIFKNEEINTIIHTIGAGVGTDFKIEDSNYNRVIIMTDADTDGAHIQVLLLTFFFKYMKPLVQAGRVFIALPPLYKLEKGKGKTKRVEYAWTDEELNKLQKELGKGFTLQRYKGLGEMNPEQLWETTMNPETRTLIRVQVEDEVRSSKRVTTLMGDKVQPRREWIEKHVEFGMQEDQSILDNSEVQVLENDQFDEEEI
Sequence of Dihydrofolate reductase (P0A017 whole entry): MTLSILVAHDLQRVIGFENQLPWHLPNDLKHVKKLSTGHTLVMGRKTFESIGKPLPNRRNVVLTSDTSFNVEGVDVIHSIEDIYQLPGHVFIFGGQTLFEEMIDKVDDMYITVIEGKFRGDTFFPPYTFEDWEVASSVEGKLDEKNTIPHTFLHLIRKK
Sequence of DNA gyrase subunit B (P0A0K8 whole entry): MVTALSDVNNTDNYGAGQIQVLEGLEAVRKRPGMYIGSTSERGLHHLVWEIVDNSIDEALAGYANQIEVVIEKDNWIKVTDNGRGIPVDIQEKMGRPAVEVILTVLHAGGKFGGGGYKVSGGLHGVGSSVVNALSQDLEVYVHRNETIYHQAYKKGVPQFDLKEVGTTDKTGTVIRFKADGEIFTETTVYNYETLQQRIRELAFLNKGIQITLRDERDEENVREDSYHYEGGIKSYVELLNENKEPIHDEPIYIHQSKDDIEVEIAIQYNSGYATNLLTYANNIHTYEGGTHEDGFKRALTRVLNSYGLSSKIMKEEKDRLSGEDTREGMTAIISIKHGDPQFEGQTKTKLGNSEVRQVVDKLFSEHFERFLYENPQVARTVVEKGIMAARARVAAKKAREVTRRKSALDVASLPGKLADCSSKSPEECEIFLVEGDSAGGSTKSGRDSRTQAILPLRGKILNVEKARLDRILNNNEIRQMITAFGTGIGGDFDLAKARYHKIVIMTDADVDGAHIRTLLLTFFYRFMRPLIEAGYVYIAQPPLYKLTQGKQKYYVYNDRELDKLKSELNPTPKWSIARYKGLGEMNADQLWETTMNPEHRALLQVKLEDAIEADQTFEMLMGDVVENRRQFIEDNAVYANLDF

Structure (SMILES)	MIC (Clostridioides difficile)	MIC (Streptococcus pneumoniae)	MIC (Fusarium oxysporum)	MIC (Aspergillus niger)	MIC [2]	MIC (Saccharomyces cerevisiae)	MIC (Staphylococcus aureus [3])	MIC (Aspergillus flavus [4])	MIC (Klebsiella pneumoniae)	MIC (Bacillus subtilis)	MIC (Pseudomonas aeruginosa)	MIC (Candida albicans [5])	MIC (Salmonella typhimurium)	MIC [7]	also measured
CCCCCc1nnc(NC(=S)NS(=O)(=O)c2ccc(C)cc2)s1	12.5 µg/mL (≈ 32.5 µM)	200 µg/mL (≈ 520 µM)	1.56 µg/mL (≈ 4.06 µM)	3.12 µg/mL (≈ 8.13 µM)	0.78 µg/mL (≈ 2.03 µM)	400 µg/mL (≈ 1040 µM)	0.78 µg/mL (≈ 2.03 µM)	12.5 µg/mL (≈ 32.5 µM)	1.56 µg/mL (≈ 4.06 µM)	200 µg/mL (≈ 520 µM)	0.78 µg/mL (≈ 2.03 µM)	200 µg/mL (≈ 520 µM)	100 µg/mL (≈ 260 µM)		IC50 [1]: 53800 nM; IC50 (Dihydrofolate reductase): 230 nM; IC50 (DNA gyrase subunit B): 1220 nM; MIC (Escherichia coli [6]): 0.78 µg/mL (≈ 2.03 µM)
O=S(=O)(NC(=S)Nc1ccccc1)c1ccccc1															IC50 (Carbonic anhydrase 2): 422000 nM
Cc1ccc(S(=O)(=O)NC(=S)Nc2nnc(C(C)C)s2)cc1	50 µg/mL (≈ 140 µM)	3.12 µg/mL (≈ 8.77 µM)	6.25 µg/mL (≈ 17.5 µM)	6.25 µg/mL (≈ 17.5 µM)	1.56 µg/mL (≈ 4.38 µM)	100 µg/mL (≈ 281 µM)	12.5 µg/mL (≈ 35.1 µM)	200 µg/mL (≈ 561 µM)	3.12 µg/mL (≈ 8.77 µM)	1.56 µg/mL (≈ 4.38 µM)	12.5 µg/mL (≈ 35.1 µM)	6.25 µg/mL (≈ 17.5 µM)	6.25 µg/mL (≈ 17.5 µM)		MIC (Escherichia coli [6]): 3.12 µg/mL (≈ 8.77 µM)
Cc1ccc(S(=O)(=O)NC(=S)Nc2nnc(CCC(C)C)s2)cc1	1.56 µg/mL (≈ 4.06 µM)	50 µg/mL (≈ 130 µM)	0.78 µg/mL (≈ 2.03 µM)	0.78 µg/mL (≈ 2.03 µM)	6.25 µg/mL (≈ 16.3 µM)	0.78 µg/mL (≈ 2.03 µM)	1.56 µg/mL (≈ 4.06 µM)	3.12 µg/mL (≈ 8.13 µM)	0.78 µg/mL (≈ 2.03 µM)	100 µg/mL (≈ 260 µM)	3.12 µg/mL (≈ 8.13 µM)	12.5 µg/mL (≈ 32.5 µM)	0.78 µg/mL (≈ 2.03 µM)		IC50 [1]: 66700 nM; IC50 (Dihydrofolate reductase): 350 nM; IC50 (DNA gyrase subunit B): 1620 nM; MIC (Escherichia coli [6]): 25 µg/mL (≈ 65 µM)
Fc1ccc(NC(=S)Nc2nnc(-c3ccc(Cl)cc3)s2)cc1														11 µM (≈ 4 µg/mL)	
Fc1ccc(NC(=S)Nc2nnc(-c3ccc(F)cc3)s2)cc1														10.9 µM (≈ 3.8 µg/mL)	
O=C(O)c1cn(C2CC2)c2cc(N3CCNCC3)c(F)cc2c1=O [CIPROFLOXACIN]					3.12 µg/mL (≈ 9.43 µM)		3.12 µg/mL (≈ 9.43 µM)		1.56 µg/mL (≈ 4.71 µM)	3.12 µg/mL (≈ 9.43 µM)	1.56 µg/mL (≈ 4.71 µM)		1.56 µg/mL (≈ 4.71 µM)		
CC[C@@H](CO)NCCN[C@@H](CC)CO [ETHAMBUTOL]														11.5 µM (≈ 2.35 µg/mL)	
OC(Cn1cncn1)(Cn1cncn1)c1ccc(F)cc1F [FLUCONAZOLE]			0.78 µg/mL (≈ 2.55 µM)	1.56 µg/mL (≈ 5.09 µM)		0.78 µg/mL (≈ 2.55 µM)		0.78 µg/mL (≈ 2.55 µM)				0.78 µg/mL (≈ 2.55 µM)			MIC (Candida albicans [8]): 6.25 µg/mL (≈ 20.4 µM); MIC (Escherichia coli [9]): 6.25 µg/mL (≈ 20.4 µM); MIC (Staphylococcus aureus [10]): 6.25 µg/mL (≈ 20.4 µM); MIC (Aspergillus flavus [11]): 6.25 µg/mL (≈ 20.4 µM); MIC (Candida albicans [12]): 0.05 µg/mL (≈ 0.163 µM)
NNC(=O)c1ccncc1 [ISONIAZID]														17.8 µM (≈ 2.44 µg/mL)	
Clc1ccc(COC(Cn2ccnc2)c2ccc(Cl)cc2Cl)c(Cl)c1 (stereo not drawn) [MICONAZOLE]			3.12 µg/mL (≈ 7.51 µM)	1.56 µg/mL (≈ 3.75 µM)		3.12 µg/mL (≈ 7.51 µM)		1.56 µg/mL (≈ 3.75 µM)				3.12 µg/mL (≈ 7.51 µM)			
NC(=O)N/N=C/c1ccc([N+](=O)[O-])o1 [NITROFURAZONE]															MIC (Candida albicans [8]): 6.25 µg/mL (≈ 31.5 µM); MIC (Escherichia coli [9]): 6.25 µg/mL (≈ 31.5 µM); MIC (Staphylococcus aureus [10]): 6.25 µg/mL (≈ 31.5 µM); MIC (Aspergillus flavus [11]): 6.25 µg/mL (≈ 31.5 µM)
CN[C@H](CC(C)C)C(=O)N[C@H]1C(=O)N[C@@H](CC(N)=O)C(=O)N[C@H]2C(=O)N[C@H]3C(=O)N[C@H](C(=O)N[C@H](C(=O)O)c4cc(O)cc(O)c4-c4cc3ccc4O)[C@H](O)c3ccc(c(Cl)c3)Oc3cc2cc(c3O[C@@H]2O[C@H](CO)[C@@H](O)[C@H](O)[C@H]2O[C@H]2C[C@](C)(N)[C@H](O)[C@H](C)O2)Oc2ccc(cc2Cl)[C@H]1O [VANCOMYCIN]	1.56 µg/mL (≈ 1.08 µM)	1.56 µg/mL (≈ 1.08 µM)			0.78 µg/mL (≈ 0.538 µM)		1.56 µg/mL (≈ 1.08 µM)			1.56 µg/mL (≈ 1.08 µM)					
